We go through 75 compounds from patent publication US7186831B2, “5-halo-2-alkyl[1,2,4]triazolo[1,5-a]pyrimidin-7-amines” (priority 2001, dated 2007).

Molecules are shown by their SMILES.

As a reminder, the logP is the decadic logarithm of the partition coefficient of the neutral form, usually between octanol and water. High values mean a more lipophilic compound, low ones a more hydrophilic compound.

The first series can be described thus: log P by HPLC. In kind it is physicochemical. As to conditions: EEC directive 79/831 Annex V. A8 by HPLC (gradient method, acetonitrile/0.1% aqueous phosphoric acid).
`C=C(C)CN(C)c1c(-c2c(F)cccc2Cl)c(Cl)nc2nc(C)nn12` [compound 275]: the lipophilicity (logP) was 3.63.

`COC(=O)C1CCCCN1c1c(-c2ccc(F)cc2F)c(Cl)nc2nc(C)nn12` (stereo not drawn) [compound 453] yielded a logP of 3.36. On the same count and under the same terms, the result for `C=C(C)CN(CC)c1c(-c2c(F)cccc2Cl)c(Cl)nc2nc(C3CC3)nn12` [compound 449] reads 4.61. Same read-out and setting: the result for `CON(C)c1c(-c2ccccc2F)c(Cl)nc2nc(C)nn12` [compound 377] reads 2.5. Still for that read-out and setting: the result for `CCN(CCOC)c1c(-c2c(F)cccc2Cl)c(Cl)nc2nc(C)nn12` [compound 269] reads 3.03; that for `CC1CCCN1c1c(-c2ccccc2Cl)c(Cl)nc2nc(C3CC3)nn12` (stereo not drawn) [compound 498], 3.99; that for `Cc1nc2nc(Cl)c(-c3ccccc3F)c(NC3CCCC3)n2n1` [compound 385], 3.11. `Cc1nc2nc(Cl)c(-c3c(F)cccc3F)c(NC(C)CC(C)C)n2n1` (stereo not drawn) [compound 330] came in with a logP of 3.55. Still for that read-out and setting: the result for `CCCN(CC1CC1)c1c(-c2ccc(F)cc2F)c(Cl)nc2nc(C)nn12` [compound 356] reads 3.91. Still for that read-out and setting: the result for `Cc1nc2nc(Cl)c(-c3c(F)cccc3F)c(NOCc3ccccc3)n2n1` [compound 427] reads 2.93.

In the case of `Fc1cccc(Cl)c1-c1c(Cl)nc2nc(C3CC3)nn2c1NCC(F)(F)F` [compound 481], the logP is on record as 3.19.

As for `Cc1nc2nc(Cl)c(-c3ccc(F)cc3F)c(N(C)CCC#N)n2n1` [compound 411], the logP stood at 2.34. Take `Cc1nc2nc(Cl)c(-c3c(F)cccc3F)c(NOCc3ccc(F)cc3)n2n1` [compound 432]: the logP stood at 2.9.

Consider `C=C(C)CN(C)c1c(-c2c(F)cc(F)cc2F)c(Cl)nc2nc(C3CC3)nn12` [compound 469], for which the logP was 4.27.

`CC(C)CNc1c(-c2c(F)cc(F)cc2F)c(Cl)nc2nc(C3CC3)nn12` [compound 460] came in with a logP of 3.69.

With `CC(C)(C)CNc1c(-c2c(F)cccc2Cl)c(Cl)nc2nc(C3CC3)nn12` [compound 477], the logP is on record as 4.08. The same measure, in the same setting: the result for `C=CC(C)Nc1c(-c2c(F)cc(F)cc2F)c(Cl)nc2nc(C)nn12` (stereo not drawn) [compound 417] reads 2.85. The same measure, in the same setting: the figure for `Cc1nc2nc(Cl)c(-c3ccc(F)cc3F)c(N3CCC(C)CC3)n2n1` [compound 287] is 3.75. On the same count and under the same terms, the figure for `CC1=CCCN(c2c(-c3ccc(F)cc3F)c(Cl)nc3nc(C4CC4)nn23)C1` [compound 512] is 4.14; for `C[C@H](Nc1c(-c2ccc(F)cc2F)c(Cl)nc2nc(C3CC3)nn12)C(F)(F)F` (single isomer, unassigned) [compound 489] it is 3.51. For the compound `Cc1nc2nc(Cl)c(-c3c(F)cccc3Cl)c(N(C)CC(C)C)n2n1` [compound 276], the logP is on record as 3.68. On the same count and under the same terms, the result for `Cc1nc2nc(Cl)c(-c3ccc(F)cc3F)c(N(C)CCN(C)C)n2n1` [compound 350] reads 1.23.

The compound `Cc1nc2nc(Cl)c(-c3ccc(F)cc3F)c(N3CCOCC3)n2n1` [compound 296] displayed a logP of 2.3. `CCC(C)Nc1c(-c2c(F)cccc2Cl)c(Cl)nc2nc(C3CC3)nn12` (stereo not drawn) [compound 478] gave a logP of 3.66. Same read-out and setting: the figure for `COC(=O)C1CCN(c2c(-c3c(F)cccc3F)c(Cl)nc3nc(C)nn23)CC1` [compound 318] is 2.69; for `Cc1nc2nc(Cl)c(-c3ccc(F)cc3F)c(N3CCCC(O)C3)n2n1` (stereo not drawn) [compound 452] it is 2.2; for `CC1CCCCN1c1c(-c2ccccc2Cl)c(Cl)nc2nc(C3CC3)nn12` (stereo not drawn) [compound 499] it is 4.61.

`Fc1cccc(Cl)c1-c1c(Cl)nc2nc(C3CC3)nn2c1N1CCCCO1` [compound 486]: the logP is on record as 3.74. On the same count and under the same terms, the figure for `Cc1nc2nc(Cl)c(-c3ccccc3F)c(NOC(C)C)n2n1` [compound 378] is 2.54; for `CCOC(=O)CN(c1c(-c2ccc(F)cc2F)c(Cl)nc2nc(C)nn12)C1CC1` [compound 414] it is 3.29.

Still in this series, the particulars now being: HPLC, gradient method, acetonitrile/0.1% aqueous phosphoric acid; EEC directive 79/831 Annex V. A8.
`CCc1nc2nc(Cl)c(-c3c(F)cc(F)cc3F)c(NC3CCCC3)n2n1` [compound 75] displayed a logP of 3.66. On to `Cc1nc2nc(Cl)c(-c3ccccc3Cl)c(N3CCC(O)C3)n2n1` (stereo not drawn) [compound 245], for which the logP was 0.75. Compound `N#CCNc1c(-c2c(F)cc(F)cc2F)c(Cl)nc2nc(C(F)(F)F)nn12` [compound 24] had a logP of 2.91. Still for that read-out and setting: the result for `CC(C)C(C)Nc1c(-c2ccc(F)cc2Cl)c(Cl)nc2nc(C3CC3)nn12` (racemic) [compound 586] reads 4.25; that for `Cc1nc2nc(Cl)c(-c3c(F)cccc3Cl)c(NCC#N)n2n1` [compound 253], 2.11.

Consider `CN(C)CCN(C)c1c(-c2ccc(F)cc2F)c(Cl)nc2nc(C(F)(F)F)nn12` [compound 538], for which the logP was 1.77. Same read-out and setting: the figure for `Cc1nc2nc(Cl)c(-c3ccc(F)cc3Cl)c(NC(C)C(C)C)n2n1` (stereo not drawn) [compound 588] is 3.6. The same measure, in the same setting: the figure for `CC(C)CNc1c(-c2ccc(F)cc2F)c(Cl)nc2nc(C(F)(F)F)nn12` [compound 525] is 4.03. Still for that read-out and setting: the figure for `Fc1ccc(-c2c(Cl)nc3nc(C4CC4)nn3c2N2CCC(N3CCOCC3)CC2)c(F)c1` [compound 734] is 1.55. In the case of `CC(C)CN(C)c1c(-c2c(F)cccc2Cl)c(Cl)nc2nc(C3CC3)nn12` [compound 698], the lipophilicity (logP) is reported as 4.32. Same read-out and setting: the result for `COCCNc1c(-c2ccc(F)cc2Cl)c(Cl)nc2nc(C3CC3)nn12` [compound 616] reads 3.07; that for `Cc1nc2nc(Cl)c(-c3ccccc3Cl)c(N3CCSCC3)n2n1` [compound 235], 3.09. `CCc1nc2nc(Cl)c(-c3c(F)cc(F)cc3F)c(NNC(C)C)n2n1` [compound 49]: the logP came to 3.05.

As for `Cc1nc2nc(Cl)c(-c3ccc(F)cc3Cl)c(N[C@@H](C)C(F)(F)F)n2n1` (single isomer, unassigned) [compound 641], the logP is recorded as 3.2. On the same count and under the same terms, the figure for `CC1CCN(c2c(-c3c(F)cccc3F)c(Cl)nc3nc(C4CC4)nn23)CC1` [compound 681] is 4.34; for `Cc1nc2nc(Cl)c(-c3c(F)cc(F)cc3F)c(NC(C)C(F)(F)F)n2n1` (stereo not drawn) [compound 69] it is 3.04; for `Cc1nc2nc(Cl)c(-c3c(F)cc(F)cc3F)c(N(C)C)n2n1` [compound 86] it is 2.49. For `Fc1cccc(F)c1-c1c(Cl)nc2nc(C3CC3)nn2c1NC1CCCC1` [compound 740], the logP was 3.66. Same read-out and setting: the result for `C=CCN(CC)c1c(-c2ccccc2Cl)c(Cl)nc2nc(C)nn12` [compound 224] reads 3.5; that for `OC1CCN(c2c(-c3ccc(F)cc3F)c(Cl)nc3nc(C4CC4)nn23)C1` (stereo not drawn) [compound 603], 2.2; that for `CCCCNc1c(-c2c(F)cccc2F)c(Cl)nc2nc(C)nn12` [compound 560], 2.89.

For `C=C(C)CNc1c(-c2c(F)cccc2F)c(Cl)nc2nc(C3CC3)nn12` [compound 760], the logP was determined as 3.28. On the same count and under the same terms, the figure for `Cc1nc2nc(Cl)c(-c3ccc(F)cc3F)c(N(C)CC(C)C)n2n1` [compound 205] is 3.49. As for `Cc1nc2nc(Cl)c(-c3c(F)cc(F)cc3F)c(N3CCCCO3)n2n1` [compound 574], the logP is on record as 3.07. Same read-out and setting: the figure for `Fc1ccc(-c2c(Cl)nc3nc(C4CC4)nn3c2NCC2CC2)c(F)c1` [compound 656] is 3.26; for `Cc1nc2nc(Cl)c(-c3c(F)cccc3F)c(NC(C)C(C)(C)C)n2n1` (stereo not drawn) [compound 685] it is 3.56. The compound `Cc1nc2nc(Cl)c(-c3c(F)cccc3Cl)c(N3CCCC3)n2n1` [compound 251] yielded a logP of 2.95. Consider `Cc1nc2nc(Cl)c(-c3ccccc3Cl)c(N(C)Cc3ccco3)n2n1` [compound 238], for which the logP worked out at 3.2. `CCONc1c(-c2c(F)cccc2F)c(Cl)nc2nc(C)nn12` [compound 136] registered a logP of 2.22. The same measure, in the same setting: the figure for `C=C(C)CN(C)c1c(-c2ccc(F)cc2F)c(Cl)nc2nc(C)nn12` [compound 206] is 3.41; for `CCc1nc2nc(Cl)c(-c3c(F)cc(F)cc3F)c(NC)n2n1` [compound 93] it is 2.44. On the same count and under the same terms, the figure for `CN(Cc1ccco1)c1c(-c2ccc(F)cc2F)c(Cl)nc2nc(C3CC3)nn12` [compound 667] is 3.63. Same read-out and setting: the figure for `CCC(C)ONc1c(-c2c(F)cccc2F)c(Cl)nc2nc(C)nn12` (stereo not drawn) [compound 139] is 2.78; for `Cc1nc2nc(Cl)c(-c3c(F)cccc3F)c(NC3CC(C(F)(F)F)CC(C(F)(F)F)C3)n2n1` (stereo not drawn) [compound 189] it is 3.62. Compound `CC1CN(c2c(-c3ccc(F)cc3F)c(Cl)nc3nc(C4CC4)nn23)CC(C)O1` (stereo not drawn) [compound 736] registered a logP of 3.63. This logP and that of the compound before are within 0.2 log units of each other.

For `Fc1cc(F)c(-c2c(Cl)nc3nc(C4CC4)nn3c2NCC(F)(F)F)c(F)c1` [compound 672], the logP is recorded as 3.25. Same read-out and setting: the result for `Fc1ccc(-c2c(Cl)nc3nc(C(F)(F)F)nn3c2NCC(F)(F)F)c(F)c1` [compound 532] reads 3.58; that for `CC1(C)CCN(c2c(-c3ccc(F)cc3F)c(Cl)nc3nc(C4CC4)nn23)CC1` [compound 615], 4.67; that for `CC(C)CN(N)c1c(-c2c(F)cccc2Cl)c(Cl)nc2nc(C3CC3)nn12` [compound 791], 3.74. On the same count and under the same terms, the figure for `CCN(CCOC)c1c(-c2c(F)cccc2Cl)c(Cl)nc2nc(C3CC3)nn12` [compound 701] is 3.66; for `Cc1nc2nc(Cl)c(-c3c(F)cc(F)cc3F)c(N3CC=CCC3)n2n1` [compound 83] it is 3.2. The same measure, in the same setting: the figure for `Cc1nc2nc(Cl)c(-c3ccc(F)cc3Cl)c(NCC(F)F)n2n1` [compound 697] is 2.54. With `CN(Cc1ccco1)c1c(-c2ccc(F)cc2F)c(Cl)nc2nc(C(F)(F)F)nn12` [compound 543], the logP is reported as 4.11. `CCc1nc2nc(Cl)c(-c3c(F)cc(F)cc3F)c(N3CCOCC3)n2n1` [compound 92] registered a logP of 2.8. `CCN(CCOC)c1c(-c2ccccc2Cl)c(Cl)nc2nc(C)nn12` [compound 225] registered a logP of 2.94.
